Consider 70 compounds from ChEMBL document CHEMBL1134339, “New 1-aryl-3-(4-arylpiperazin-1-yl)propane derivatives, with dual action at 5-HT1A serotonin receptors and serotonin transporter, as a new class of antidepressants” (J Med Chem, 2001).

As a reminder, the Ki is the dissociation constant of the complex between target and ligand, obtained from inhibition or displacement.

The structures appear in SMILES notation.

In assay [1] the target is T1, 5-hydroxytryptamine receptor 1A (Rattus norvegicus, UniProt P19327).
T1 sequence (P19327 whole entry): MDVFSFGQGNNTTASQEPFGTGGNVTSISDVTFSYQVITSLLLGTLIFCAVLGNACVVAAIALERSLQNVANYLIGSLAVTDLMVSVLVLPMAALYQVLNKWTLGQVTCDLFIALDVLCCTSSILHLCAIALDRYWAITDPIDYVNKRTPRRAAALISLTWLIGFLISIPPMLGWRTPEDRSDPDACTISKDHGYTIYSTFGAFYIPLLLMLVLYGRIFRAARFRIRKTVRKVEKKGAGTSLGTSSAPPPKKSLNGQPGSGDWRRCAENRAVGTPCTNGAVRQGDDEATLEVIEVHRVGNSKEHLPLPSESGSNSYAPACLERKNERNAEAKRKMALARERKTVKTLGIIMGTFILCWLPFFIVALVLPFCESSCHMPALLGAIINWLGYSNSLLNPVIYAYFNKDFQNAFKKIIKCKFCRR
The assay is described as follows: Binding affinity to 5-hydroxytryptamine 1A receptor (5-HT 1A receptor, serotonin receptor) from rat cortex using [3H]8-OH-DPAT as radioligand.

The target in assay [2] is Sodium-dependent serotonin transporter (Rattus norvegicus, UniProt P31652). The experiment in a line: Binding affinity towards Serotonin transporter from rat cortex measured using [3H]paroxetine. The conditions noted are these: read-out: Ki.
Chain of Sodium-dependent serotonin transporter (P31652 whole entry): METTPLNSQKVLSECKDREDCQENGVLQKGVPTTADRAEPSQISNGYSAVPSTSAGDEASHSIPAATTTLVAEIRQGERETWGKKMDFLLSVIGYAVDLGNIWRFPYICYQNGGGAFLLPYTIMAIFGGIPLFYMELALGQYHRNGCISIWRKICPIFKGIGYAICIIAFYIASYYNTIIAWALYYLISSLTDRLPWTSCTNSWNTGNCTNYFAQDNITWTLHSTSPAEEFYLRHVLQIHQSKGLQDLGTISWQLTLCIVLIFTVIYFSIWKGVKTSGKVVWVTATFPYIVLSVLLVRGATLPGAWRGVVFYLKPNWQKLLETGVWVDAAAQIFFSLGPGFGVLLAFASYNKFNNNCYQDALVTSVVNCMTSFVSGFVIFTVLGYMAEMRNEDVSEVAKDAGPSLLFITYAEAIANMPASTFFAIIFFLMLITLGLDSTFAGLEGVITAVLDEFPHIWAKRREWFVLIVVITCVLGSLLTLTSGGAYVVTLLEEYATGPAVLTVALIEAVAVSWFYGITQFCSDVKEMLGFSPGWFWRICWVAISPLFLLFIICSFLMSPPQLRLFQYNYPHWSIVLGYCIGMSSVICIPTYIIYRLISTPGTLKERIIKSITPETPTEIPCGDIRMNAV

Consider `COc1ccccc1N1CCN(CC/C(=N/O)c2ccc(C)s2)CC1`, for which the Ki in assay [1] (read-out: Ki) was 75 nM; in assay [2], 5000 nM.
Turning to `COc1ccccc1N1CCN(CCC(O)c2ccc(-c3ccccc3)cc2)CC1` (stereo not given), the Ki in assay [1] is 850 nM; in assay [2], 175 nM.
For `OC(CCN1CCN(c2ccc(Cl)cc2)CC1)c1ccc2ccccc2c1` (stereo not given), the Ki in assay [1] (read-out: Ki) is greater than 5000 nM; in assay [2], 10 nM.
In the case of `Cc1cc(C(O)CCN2CCN(c3ccccc3O)CC2)c(C)s1` (stereo not given), the figures for the Ki in assay [1] and in assay [2] were 90 nM and 2500 nM, respectively.
Regarding `FC(F)(F)c1ccc(OC(CCN2CCN(c3ncccn3)CC2)c2ccccc2)cc1` (stereo not given), the Ki in assay [1] (read-out: Ki) and in assay [2] was 1600 nM throughout.
With `FC(F)(F)c1ccc(OC(CCN2CCN(c3ccccn3)CC2)c2ccccc2)cc1` (stereo not given), the Ki in assay [2] came out at 1500 nM.
On to `OC(CCN1CCN(c2ccc(Cl)cc2)CC1)c1ccccc1` (stereo not given), for which the Ki in assay [1] (read-out: Ki) was 800 nM; in assay [2], 350 nM.
As for `FC(F)(F)c1ccc(OC(CCN2CCN(c3ccccc3Cl)CC2)c2ccccc2)cc1` (stereo not given), the Ki in assay [1] (read-out: Ki) and in assay [2] was greater than 5000 nM throughout.
For `COc1ccc(N2CCN(CCC(=O)c3ccccc3)CC2)cc1`, the values for the Ki in assay [1] (read-out: Ki) and in assay [2] were 5000 nM and greater than 5000 nM, respectively.
In the case of `COc1ccccc1N1CCN(CCC(O)c2cccs2)CC1` (stereo not given), the Ki in assay [1] was found to be 19 nM; in assay [2] it was 1250 nM.
`O=C(CCN1CCN(c2ccccc2Cl)CC1)c1ccsc1`: the Ki is 200 nM in assay [1] (read-out: Ki) and greater than 5000 nM in assay [2].
On to `COc1cc(Cl)ccc1N1CCN(CCC(O)c2csc3ccccc23)CC1` (stereo not given), for which the Ki in assay [1] is 361 nM; in assay [2], 35 nM.
The matching figures for `COc1ccccc1N1CCN(CCC(=O)c2ccc([N+](=O)[O-])s2)CC1`: 340 nM and greater than 5000 nM.
As to `COc1cc(F)ccc1N1CCN(CCC(=O)c2csc3ccccc23)CC1`, the Ki in assay [1] (read-out: Ki) and in assay [2] was 500 nM each time.
As for `Cc1cc(C(=O)CCN2CCN(c3cccc4ccccc34)CC2)c(C)s1`, the Ki in assay [1] (read-out: Ki) worked out at 100 nM; in assay [2] it was 370 nM.
Regarding `Fc1ccc(N2CCN(CCC(Oc3ccc(C(F)(F)F)cc3)c3ccccc3)CC2)cc1` (stereo not given), the inhibition constant Ki was greater than 5000 nM in assay [1] (read-out: Ki) and 500 nM in assay [2].
As for `COc1ccc(C(=O)CCN2CCN(c3ccccc3OC)CC2)cc1`, in assay [2], the Ki was greater than 5000 nM.
With `O=C(CCN1CCN(c2ccc(Cl)cc2)CC1)c1cccs1`, the figures for the Ki in assay [1] (read-out: Ki) and in assay [2] were greater than 5000 nM and 60 nM, respectively.
With `O=C(CCN1CCN(c2ccc(Cl)cc2)CC1)c1ccsc1`, the Ki in assay [2] turned out to be 220 nM.
In the case of `O=C(CCN1CCN(c2cccc3ccccc23)CC1)c1csc2ccccc12`, the Ki was found to be 100 nM in assay [1] (read-out: Ki) and 500 nM in assay [2].
Take `O=C(CCN1CCN(c2ccccc2O)CC1)c1csc2ccccc12`: the figures for the Ki in assay [1] and in assay [2] were 110 nM and 490 nM, respectively.
The matching figures for `COc1ccccc1N1CCN(CCC(Oc2ccc3c(c2)OCO3)c2ccsc2)CC1` (stereo not given): 55 nM and 6500 nM.
In the case of `O=[N+]([O-])c1ccc(N2CCN(CCC(O)c3ccccc3)CC2)cc1` (stereo not given), the Ki in assay [1] (read-out: Ki) is greater than 5000 nM; in assay [2], 1150 nM.
The matching figures for `OC(CCN1CCN(c2ccc(Cl)cc2)CC1)c1csc2ccccc12` (stereo not given): 5000 nM and 50 nM.
On to `COc1ccc(OC(CCN2CCN(c3ccccc3OC)CC2)c2ccccc2)cc1` (stereo not given), for which the Ki stood at 90 nM in assay [1] and 1450 nM in assay [2].
For `COc1ccccc1N1CCN(CCC(=O)c2cc(C)sc2C)CC1`, the Ki came to 5 nM in assay [1] (read-out: Ki) and 1350 nM in assay [2].
Regarding `O=C(CCN1CCN(c2cccc3ccccc23)CC1)c1ccsc1`, the Ki worked out at 35 nM in assay [1] and 800 nM in assay [2].
For `O=C(CCN1CCN(c2ccc([N+](=O)[O-])cc2)CC1)c1ccccc1`, the Ki in assay [1] (read-out: Ki) and in assay [2] was greater than 5000 nM in each case.
Take `COc1ccccc1N1CCN(CCC(Oc2ccc3c(c2)OCO3)c2ccccc2)CC1` (stereo not given): the Ki was found to be 20 nM in assay [1] (read-out: Ki) and 500 nM in assay [2].
In the case of `COc1ccccc1N1CCN(CC/C(=N\O)c2ccccc2)CC1`, the Ki stood at 17.5 nM in assay [1] and 5000 nM in assay [2].
In the case of `COc1ccccc1N1CCN(CCC(O)c2ccsc2)CC1` (stereo not given), the Ki was 50 nM in assay [1] (read-out: Ki) and 385 nM in assay [2].
For `COc1ccccc1N1CCN(CC/C(=N\O)c2cc(C)sc2C)CC1`, in that order: 85 nM and 5000 nM.
For `COc1cc(F)ccc1N1CCN(CCC(O)c2csc3ccccc23)CC1` (stereo not given), in that order: 500 nM and 12 nM.
In the case of `COc1ccccc1N1CCN(CCC(=O)c2ccccc2)CC1`, the inhibitory constant (Ki) in assay [2] is greater than 5000 nM.
In the case of `COc1ccc(OC(CCN2CCN(c3ccc(Cl)cc3)CC2)c2ccccc2)cc1` (stereo not given), the Ki was 1450 nM in assay [1] (read-out: Ki) and 500 nM in assay [2].
Consider `O=C(CCN1CCN(c2ncccn2)CC1)c1ccccc1`, for which the figures for the Ki in assay [1] and in assay [2] were 120 nM and greater than 5000 nM, respectively.
In the case of `COc1ccccc1N1CCN(CCC(Oc2ccc(C(F)(F)F)cc2)c2ccc(-c3ccccc3)cc2)CC1` (stereo not given), the Ki in assay [1] (read-out: Ki) and in assay [2] was greater than 5000 nM in each case.
For `O/N=C(\CCN1CCN(c2ccc(Cl)cc2)CC1)c1ccccc1`, the Ki is greater than 5000 nM in assay [1] (read-out: Ki) and 5000 nM in assay [2].
Turning to `COc1ccc(N2CCN(CCC(Oc3ccc(C(F)(F)F)cc3)c3ccccc3)CC2)cc1` (stereo not given), the Ki in assay [1] (read-out: Ki) and in assay [2] was greater than 5000 nM each time.
For the compound `O=C(CCN1CCN(c2ccc(Cl)cc2)CC1)c1csc2ccccc12`, the Ki is greater than 5000 nM in assay [1] (read-out: Ki) and 5000 nM in assay [2].
For `O=[N+]([O-])c1ccc(N2CCN(CCC(Oc3ccc(C(F)(F)F)cc3)c3ccccc3)CC2)cc1` (stereo not given), in that order: greater than 5000 nM and 2500 nM.
For `O=C(CCN1CCN(c2ccc(Cl)cc2)CC1)c1ccc2ccccc2c1`, in that order: greater than 5000 nM and 240 nM.
As for `COc1ccccc1N1CCN(CCC(O)c2ccc([N+](=O)[O-])cc2)CC1` (stereo not given), the inhibition constant Ki in assay [1] (read-out: Ki) worked out at 10 nM; in assay [2], 2500 nM.
With `COc1ccccc1N1CCN(CCC(O)c2ccc(C)s2)CC1` (stereo not given), the Ki in assay [1] was found to be 34 nM; in assay [2], 5000 nM.
`O=C(CCN1CCN(c2ccccc2Cl)CC1)c1ccccc1`: the Ki in assay [1] (read-out: Ki) is 180 nM; in assay [2], greater than 5000 nM.
As for `OC(CCN1CCN(c2ccccn2)CC1)c1ccccc1` (stereo not given), the Ki in assay [1] was 155 nM; in assay [2], greater than 5000 nM.
As to `FC(F)(F)c1ccc(OC(CCN2CCN(c3ccc(Cl)cc3)CC2)c2ccccc2)cc1` (stereo not given), the inhibitory constant (Ki) in assay [1] (read-out: Ki) is greater than 5000 nM; in assay [2], 350 nM.
For the compound `COc1ccc(C(CCN2CCN(c3ccccc3OC)CC2)Oc2ccc(C(F)(F)F)cc2)cc1` (stereo not given), the results for the Ki in assay [1] (read-out: Ki) and in assay [2] were 1000 nM and 650 nM, respectively.
As for `COc1ccccc1N1CCN(CCC(=O)c2ccc(C)s2)CC1`, the Ki in assay [1] (read-out: Ki) is 17.5 nM; in assay [2], greater than 5000 nM.
For `COc1cc(Cl)ccc1N1CCN(CCC(=O)c2cc(C)sc2C)CC1`, the values for the inhibitory constant (Ki) in assay [1] (read-out: Ki) and in assay [2] were 500 nM and 275 nM, respectively.
With `O=C(CCN1CCN(c2ccc(Cl)cc2)CC1)c1ccccc1`, the figures for the Ki in assay [1] (read-out: Ki) and in assay [2] were 800 nM and 300 nM, respectively.
In the case of `OC(CCN1CCN(c2ccc(Cl)cc2)CC1)c1ccsc1` (stereo not given), in assay [2], the Ki stood at 200 nM.
For the compound `COc1ccccc1N1CCN(CCC(Oc2cccc3ccccc23)c2cccs2)CC1` (stereo not given), the Ki was 220 nM in assay [1] and greater than 5000 nM in assay [2].
In the case of `OC(CCN1CCN(c2ccccc2Cl)CC1)c1ccccc1` (stereo not given), the Ki in assay [1] is 115 nM; in assay [2], greater than 5000 nM.
For the compound `COc1cc(F)ccc1N1CCN(CCC(=O)c2cc(C)sc2C)CC1`, the figures for the Ki in assay [1] (read-out: Ki) and in assay [2] were 13 nM and 750 nM, respectively.
Consider `COc1ccccc1N1CCN(CCC(Oc2ccc(C(F)(F)F)cc2)c2ccsc2)CC1` (stereo not given), for which the values for the inhibitory constant (Ki) in assay [1] and in assay [2] were 255 nM and 460 nM, respectively.
For `Cc1cc(C(=O)CCN2CCN(c3ccccc3O)CC2)c(C)s1`, in that order: 7.5 nM and 800 nM.
For `COc1ccccc1N1CCN(CC/C(=N\O)c2ccsc2)CC1`, in that order: 6.5 nM and 950 nM.
In the case of `COc1cc(Cl)ccc1N1CCN(CCC(=O)c2csc3ccccc23)CC1`, the values for the inhibitory constant (Ki) in assay [1] (read-out: Ki) and in assay [2] were 500 nM and 275 nM, respectively.
As for `O=C(CCN1CCN(c2ccccc2O)CC1)c1ccc2ccccc2c1`, the Ki in assay [1] (read-out: Ki) amounted to 1000 nM; in assay [2] it was 2500 nM.
`COc1ccccc1N1CCN(CCC(=O)c2ccc(-c3ccccc3)cc2)CC1`: the Ki in assay [1] was 3650 nM; in assay [2], 700 nM.
For `COc1ccccc1N1CCN(CCC(O)c2ccccc2)CC1` (stereo not given), in that order: 47.5 nM and greater than 5000 nM.
As to `O=C(CCN1CCN(c2ccccn2)CC1)c1ccccc1`, the results for the Ki in assay [1] (read-out: Ki) and in assay [2] were 50 nM and greater than 5000 nM, respectively.
As for `OC(CCN1CCN(c2ccc(Cl)cc2)CC1)c1cccs1` (stereo not given), the Ki was greater than 5000 nM in assay [1] (read-out: Ki) and 290 nM in assay [2].
As for `COc1ccc(N2CCN(CCC(O)c3ccccc3)CC2)cc1` (stereo not given), the Ki in assay [1] (read-out: Ki) was greater than 5000 nM; in assay [2], 1150 nM.
Take `OC(CCN1CCN(c2ncccn2)CC1)c1ccccc1` (stereo not given): the inhibitory constant (Ki) was 375 nM in assay [1] and greater than 5000 nM in assay [2].
For `O=C(CCN1CCN(c2ccc(F)cc2)CC1)c1ccccc1`, the results for the Ki in assay [1] (read-out: Ki) and in assay [2] were 800 nM and greater than 5000 nM, respectively.
For the compound `COc1ccc(C(O)CCN2CCN(c3ccccc3OC)CC2)cc1` (stereo not given), the Ki in assay [1] was found to be 325 nM; in assay [2], 500 nM.
For `OC(CCN1CCN(c2ccc(F)cc2)CC1)c1ccccc1` (stereo not given), in that order: 145 nM and 4700 nM.
Turning to `COc1ccccc1N1CCN(CCC(=O)c2ccc3ccccc3c2)CC1`, the results for the Ki in assay [1] (read-out: Ki) and in assay [2] were 250 nM and 1000 nM, respectively.
